This is an account of results in a melting point compilation (Tetko et al.; mined from patent text by program, amines drawn as free bases though some values may be those of a salt).

As usually defined, the melting point is the temperature of the solid-liquid transition.

Regarding `O=[N+]([O-])c1cnc2ccc(Sc3ccccc3)cn12`, the melting point fell in the range of 108 to 109 °C.
The value for `CCCCNS(=O)(=O)CC(O)C(O)C(CC1CCCCC1)NC(=O)c1cnccn1` (stereo unspecified) was 178 to 180 °C; that for `Nc1sc2c(c1C(=O)c1cccs1)CCC2` was 133 to 134 °C.
For the compound `CCCCc1ncc(/C=C(\Cc2cccs2)C(=O)O)n1Cc1ccc(CC(=O)O)cc1`, the melting point is 169 to 171 °C.
Compound `O=[N+]([O-])c1ccccc1/C=C/c1ccccc1[N+](=O)[O-]` registered a melting point of 195 to 196 °C.
The value for `COc1cc(Nc2c(C#N)cnc3cc(-c4cccc(CN5CCOCC5)c4)c(OC)cc23)c(Cl)cc1Cl` was 155 to 158 °C.
Regarding `CCCCc1cn2nc3c(c(=O)n(CCC)c(=O)n3Cc3ccccc3)c2n1C`, the melting point was in the range of 139 to 140 °C.
In the case of `CCOC(=O)c1c(N2CCN(C(=O)c3cccs3)CC2)c2cc(Cl)cnc2n(Cc2cccc(F)c2)c1=O`, the melting point was determined as 186 °C.
For `C=Cc1cnc(-c2ncccn2)nc1`, the melting point was found to be 150 °C.
In turn, `CS(=O)(=O)Nc1c(CCCCCCC(=O)O)ccc2ccccc12` displayed a melting point of 122 to 127 °C.
The same measure for `Cc1[nH]c(=O)n(-c2cc(C(=O)OC(C)C)c(Cl)cc2F)c(=O)c1C`: 155 to 157 °C; for `O=S(=O)(O)c1cncc(Br)c1`: more than 300 °C; for `COc1cc(C(=O)Nc2cccc3c2CCN(C)C3)cc(OC)c1OC`: 143 °C.
For `Cc1ccccc1CNc1cc(Br)cc2c1nc(C)n2C`, the melting point lay in the range of 128 to 129 °C.
In the case of `COC(=O)CC/C(C)=C/Cc1c(OC)c(C)c2c(c1C(=O)O)C(=O)OC2`, the melting point is 169 to 170 °C.
In turn, `CON=C(C)c1nc(-c2cccnc2)[nH]c1C` returned a melting point of 203 to 205 °C.
Turning to `Cc1noc(C)c1C(C)(O)c1ccoc1` (stereo unspecified), the melting point is 88 to 90 °C.
`CCc1cc2c(s1)S(=O)(=O)Cc1cc(=O)n(-c3ccc(Cl)cc3)nc1-2` came in with a melting point of 189 to 191 °C.
The value for `c1cnc2c(OCCn3ccc4ccc5c(c43)CCNCC5)cccc2c1` was 129 to 132 °C; that for `CC(Cc1ccc(OCc2cccc(C(=O)O)c2)cc1)NCCC(c1ccccc1)c1ccccc1` (stereo unspecified) was 209 to 212 °C.
The same measure for `CCn1c(=O)c2c(nc(/C=C/c3ccccc3OC)n2C)n(CC)c1=O`: 190 °C; for `Cc1ccc(-c2coc3c(C)c(C)cc(C)c23)nc1`: 134 to 135 °C.
In turn, `Cc1onc(-c2ccc(Cl)o2)c1-c1ccc(F)cc1` registered a melting point of 104 to 105 °C.
In the case of `Cc1ccc2c3c(ccc2n1)OC[C@H](CNCCCc1csc2ccc(F)cc12)O3`, the melting point lay within 117 to 120 °C.
As to `CC(=O)OC1CCC2C3C(Sc4ccc(O)cc4)C(=O)c4cc(O)ccc4C3CCC12C` (stereo unspecified), the melting point is 150 to 155 °C.
The same measure for `CC1=CC(O)C(OC(=O)c2ccco2)C(C)(C)CC1=O` (stereo unspecified): 102 to 104 °C.
`CC1=C(c2ccncc2)SC(c2ccco2)C(=O)N1` (stereo unspecified) gave a melting point of 178 to 180 °C.
`COc1ccc2[nH]c(-c3n[nH]c4ccsc34)cc2n1` yielded a melting point of 234 to 236 °C.
The same measure for `Cc1nc(CO)n(Cc2ccccc2)c1C`: 156 to 158 °C; for `COc1cc(COc2nn(-c3ccccc3)cc2/C=C/C=O)ccc1OCc1nc(-c2ccco2)oc1C`: 134 to 135 °C.
`Cc1ccc(S(=O)(=O)C=C(Cl)C#N)cc1`: the melting point turned out to be 78 °C.
The value for `CC(C)c1oc(-c2ccc(F)cc2)nc1CC(=O)O` was 137 to 138 °C; that for `O=C(NS(=O)(=O)c1ccc(Oc2cccc(C(F)(F)F)c2)cc1)c1ccc(C(=O)NCCO)nc1` was 167 to 168 °C.
Compound `Cn1nc(C(F)(F)F)n(-c2ccc(N)cc2Cl)c1=S` yielded a melting point of 145 to 147 °C.
On to `Cc1cc(OCc2ccc(-c3ccc(C(F)(F)F)cc3)nc2)ccc1OC(C)(C)C(=O)O`, for which the melting point fell in the range of 149 to 151 °C.
`O=c1ccn2c(n1)COc1ccc(Cl)cc1-2` gave a melting point of 222 to 224 °C.
